Assay results from ChEMBL document CHEMBL1201862, “PubChem BioAssay data set” (2004).
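Five concentrations, 48 hours, 96-well plates. GI50 marks 50% less growth.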 Activity calls are given as the source filed them. Cut-off read from the data, not from the text of the source: active = GI50 up to about 1.1 µM and inactive = higher.

What was measured:
Assay in all cases: NCI tumour cell line growth inhibition, 48 h
COLO 205 = test system: COLO 205
EKVX = test system: EKVX
HCT-116 = test system: HCT-116
HL-60 = test system: HL-60
HT-29 = test system: HT-29
KM12 = test system: KM12
MDA-MB-231 = test system: MDA-MB-231
MDA-MB-435 = test system: MDA-MB-435
MOLT-4 = test system: MOLT-4
NCI-H522 = test system: NCI-H522
OVCAR-3 = test system: OVCAR-3
OVCAR-5 = test system: OVCAR-5
RPMI-8226 = test system: RPMI-8226
SF-268 = test system: SF-268
SF-539 = test system: SF-539
SK-MEL-28 = test system: SK-MEL-28
SK-OV-3 = test system: SK-OV-3
SN12C = test system: SN12C
UACC-257 = test system: UACC-257
UACC-62 = test system: UACC-62

Measured: GI50

CC1C(=O)CC[C@@]2(C)C(=O)CCCC12O (stereo not given in full)
inactive: COLO 205 > 100 µM | EKVX > 100 µM | HCT-116 > 100 µM | HL-60 > 100 µM | HT-29 > 100 µM | KM12 > 100 µM | MDA-MB-231 > 100 µM | MDA-MB-435 > 100 µM | MOLT-4 > 100 µM | NCI-H522 > 100 µM | OVCAR-3 > 100 µM | OVCAR-5 > 100 µM | RPMI-8226 > 100 µM | SF-268 > 100 µM | SF-539 > 100 µM | SK-MEL-28 > 100 µM | SK-OV-3 > 100 µM | SN12C > 100 µM | UACC-257 > 100 µM | UACC-62 > 100 µM

CCCCNc1nc(SC)nc2[nH]cnc12
inactive: COLO 205 > 100 µM | EKVX > 87.7 µM | HCT-116 > 100 µM | HL-60 > 100 µM | HT-29 > 100 µM | KM12 > 100 µM | MDA-MB-231 > 81.1 µM | MDA-MB-435 > 100 µM | MOLT-4 > 100 µM | NCI-H522 > 100 µM | OVCAR-3 > 100 µM | OVCAR-5 > 100 µM | RPMI-8226 > 100 µM | SF-268 98.4 µM | SF-539 > 100 µM | SK-MEL-28 > 100 µM | SK-OV-3 5.82 µM | SN12C > 100 µM | UACC-257 > 100 µM | UACC-62 > 100 µM

Nc1ccc2c(SCc3ccc([N+](=O)[O-])cc3)c3ccccc3nc2c1
inactive: COLO 205 2.28 µM | EKVX 24.8 µM | HCT-116 7.53 µM | HL-60 1.31 µM | HT-29 17.5 µM | KM12 12.5 µM | MDA-MB-231 25.5 µM | MDA-MB-435 14.5 µM | MOLT-4 2.3 µM | NCI-H522 3.47 µM | OVCAR-3 15.8 µM | OVCAR-5 18.3 µM | RPMI-8226 2.7 µM | SF-268 15.2 µM | SF-539 16.4 µM | SK-MEL-28 15.6 µM | SK-OV-3 20.5 µM | SN12C 18.6 µM | UACC-257 16.4 µM | UACC-62 16.3 µM

O=C(Oc1c(Cl)cc(C2(c3cc(Cl)c(OC(=O)c4ccccc4)c(Cl)c3)CCCCC2)cc1Cl)c1ccccc1
inactive: COLO 205 5.78 µM | EKVX 11.1 µM | HCT-116 13.2 µM | HL-60 3.32 µM | HT-29 14.6 µM | KM12 5.08 µM | MDA-MB-231 13.7 µM | MDA-MB-435 10.1 µM | MOLT-4 5 µM | NCI-H522 13.7 µM | OVCAR-3 10.9 µM | OVCAR-5 14 µM | RPMI-8226 11.9 µM | SF-268 12.6 µM | SF-539 14.3 µM | SK-MEL-28 14.7 µM | SK-OV-3 15.5 µM | SN12C 13.2 µM | UACC-257 12.7 µM | UACC-62 10.5 µM

Oc1cc(-c2ccc(F)cc2)nc2ncc(Cl)cc12
inactive: COLO 205 22.3 µM | EKVX 30.3 µM | HCT-116 9.51 µM | HL-60 3.38 µM | HT-29 26.5 µM | KM12 6.17 µM | MDA-MB-231 > 65.5 µM | MDA-MB-435 2.82 µM | MOLT-4 20.7 µM | NCI-H522 10.5 µM | OVCAR-3 20.6 µM | OVCAR-5 55.3 µM | RPMI-8226 19 µM | SF-268 67 µM | SF-539 27.6 µM | SK-MEL-28 58.5 µM | SK-OV-3 45.5 µM | SN12C > 84.1 µM | UACC-257 > 68.9 µM | UACC-62 9.71 µM
